Results published in patent publication US8962681B2, “Use of aminoacetonitrile derivatives against endoparasites” (Zoetis LLC, priority 2011, dated 2015).

System: Dirofilaria immitis microfilariae
Assay: in vitro microwell motility assay against heartworm microfilariae
Assay type: cell-based
Details: microfilaria from canine blood, 384 well plate, 72 hours incubation at 37° C. and 5% CO2, LemnaTec Scanalyzer

Row | Structure (SMILES) | ED50 (dose at which the overall microfilaria motility was reduced by 50% compared to that of an untreated control) [µM]
1 | CC(C#N)(COc1cc(C#N)ccc1C(F)(F)F)NC(=O)c1ccc(S(F)(F)(F)(F)F)cc1 (stereo not drawn) [test compound 3, N-{1-cyano-2-[5-cyano-2-(trifluoromethyl)phenoxy]-1-methylethyl}-4-(pentafluorothio)benzamide] | 10
2 | Cc1ccc(Oc2ccc(C#N)cc2OCC(C)(C#N)NC(=O)c2ccc(S(F)(F)(F)(F)F)cc2)c(C)c1 (stereo not drawn) [test compound 72, N-{1-cyano-2-[5-cyano-2-(2,4-dimethylphenoxy)phenoxy]-1-methylethyl}-4-(pentafluorothio)benzamide] | 1
3 | CC(C#N)(COc1cc(C#N)ccc1Cl)NC(=O)c1ccc(S(F)(F)(F)(F)F)cc1 (stereo not drawn) [test compound 57, N-[2-(2-chloro-5-cyanophenoxy)-1-cyano-1-methylethyl]-4-(pentafluorothio)-benzamide] | 10
4 | CC(C#N)(COc1cc(C#N)ccc1Oc1ccc(F)cc1Cl)NC(=O)c1ccc(S(F)(F)(F)(F)F)cc1 (stereo not drawn) [test compound 63, N-{2-[2-(2-chloro-4-fluorophenoxy)-5-cyanophenoxy]-1-cyano-1-methylethyl}-4-(pentafluorothio)benzamide] | 3.3
5 | CC(C#N)(COc1ccc(-c2cccnc2)cc1C(F)(F)F)NC(=O)c1ccc(S(F)(F)(F)(F)F)cc1 (stereo not drawn) [test compound 82, N-{1-cyano-1-methyl-2-[4-pyridin-3-yl-2-(trifluoromethyl)phenoxy]ethyl}-4-(pentafluorothio)benzamide] | 10
6 | COc1ccc(Oc2ccc(C#N)cc2OCC(C)(C#N)NC(=O)c2ccc(S(F)(F)(F)(F)F)cc2)cc1 (stereo not drawn) [test compound 66, N-{1-cyano-2-[5-cyano-2-(4-methoxyphenoxy)phenoxy]-1-methylethyl}-4-(pentafluorothio)benzamide] | 3.3
7 | CC(C#N)(COc1cccc(Cl)c1C#N)NC(=O)c1ccc(S(F)(F)(F)(F)F)cc1 (stereo not drawn) [test compound 17, N-[2-(3-chloro-2-cyanophenoxy)-1-cyano-1-methylethyl]-4-(pentafluorothio)-benzamide] | 10
8 | CC(C#N)(COCc1ccc(C(F)(F)F)cc1)NC(=O)c1ccc(S(F)(F)(F)(F)F)cc1 (stereo not drawn) [test compound 84, N-(1-cyano-1-methyl-2-{[4-(trifluoromethyl)benzyl]oxy}ethyl)-4-(pentafluorothio)benzamide] | 3.3
9 | COc1cc(O)ccc1Oc1ccc(C#N)cc1OCC(C)(C#N)NC(=O)c1ccc(S(F)(F)(F)(F)F)cc1 (stereo not drawn) [test compound 79, N-{1-cyano-2-[5-cyano-2-(4-hydroxy-2-methoxyphenoxy)phenoxy]-1-methylethyl}-4-(pentafluorothio)benzamide] | 10
10 | CC(C#N)(COc1cc(C#N)ccc1OC(F)(F)F)NC(=O)c1ccc(S(F)(F)(F)(F)F)cc1 (stereo not drawn) [test compound 55, N-{1-cyano-2-[5-cyano-2-(trifluoromethoxy)phenoxy]-1-methylethyl}-4-(pentafluorothio)benzamide] | 10
11 | CC(C#N)(Cc1ccc(C#N)cc1Cl)NC(=O)c1ccc(S(F)(F)(F)(F)F)cc1 (stereo not drawn) [test compound 90, N-[2-(2-chloro-4-cyanophenyl)-1-cyano-1-methylethyl]-4-(pentafluorothio)benzamide] | 33
12 | CC(C#N)(COc1cc(C#N)ccc1Oc1ccc(C(F)(F)F)cc1)NC(=O)c1ccc(S(F)(F)(F)(F)F)cc1 (stereo not drawn) [test compound 67, N-(1-cyano-2-{5-cyano-2-[4-(trifluoromethyl)phenoxy]phenoxy}-1-methylethyl)-4-(pentafluorothio)benzamide] | 1
